Measured values from patent US20240209028A1, “CNP COMPOUNDS” (priority 2022, published 2024).
Starred links: 1 amine or outer side, 2 acyl side, 3 side chain; linkers in the order of their positions; H or OH if unused. Positions of bridges follow the written chain, without caps; N, C: chain ends. Residues, ends and D or L forms follow the SMILES beside them. *: point of attachment. C18 diacid = O=C(O)CCCCCCCCCCCCCCCCC(=O)*; γGlu = O=C(O)[C@H](CCC(=O)[*:2])N[*:1]; AEEA = NCCOCCOCC(=O)O

Target: T1, human natriuretic peptide receptor 2 (hNPR2) (Homo sapiens, UniProt P20594)
T1 construct: expressed in transfected cells; host or cells: HEK293 (ATCC CRL-1573), clone 35, co-transfected with pGloSensor-42F
T1 sequence (P20594 23-1047): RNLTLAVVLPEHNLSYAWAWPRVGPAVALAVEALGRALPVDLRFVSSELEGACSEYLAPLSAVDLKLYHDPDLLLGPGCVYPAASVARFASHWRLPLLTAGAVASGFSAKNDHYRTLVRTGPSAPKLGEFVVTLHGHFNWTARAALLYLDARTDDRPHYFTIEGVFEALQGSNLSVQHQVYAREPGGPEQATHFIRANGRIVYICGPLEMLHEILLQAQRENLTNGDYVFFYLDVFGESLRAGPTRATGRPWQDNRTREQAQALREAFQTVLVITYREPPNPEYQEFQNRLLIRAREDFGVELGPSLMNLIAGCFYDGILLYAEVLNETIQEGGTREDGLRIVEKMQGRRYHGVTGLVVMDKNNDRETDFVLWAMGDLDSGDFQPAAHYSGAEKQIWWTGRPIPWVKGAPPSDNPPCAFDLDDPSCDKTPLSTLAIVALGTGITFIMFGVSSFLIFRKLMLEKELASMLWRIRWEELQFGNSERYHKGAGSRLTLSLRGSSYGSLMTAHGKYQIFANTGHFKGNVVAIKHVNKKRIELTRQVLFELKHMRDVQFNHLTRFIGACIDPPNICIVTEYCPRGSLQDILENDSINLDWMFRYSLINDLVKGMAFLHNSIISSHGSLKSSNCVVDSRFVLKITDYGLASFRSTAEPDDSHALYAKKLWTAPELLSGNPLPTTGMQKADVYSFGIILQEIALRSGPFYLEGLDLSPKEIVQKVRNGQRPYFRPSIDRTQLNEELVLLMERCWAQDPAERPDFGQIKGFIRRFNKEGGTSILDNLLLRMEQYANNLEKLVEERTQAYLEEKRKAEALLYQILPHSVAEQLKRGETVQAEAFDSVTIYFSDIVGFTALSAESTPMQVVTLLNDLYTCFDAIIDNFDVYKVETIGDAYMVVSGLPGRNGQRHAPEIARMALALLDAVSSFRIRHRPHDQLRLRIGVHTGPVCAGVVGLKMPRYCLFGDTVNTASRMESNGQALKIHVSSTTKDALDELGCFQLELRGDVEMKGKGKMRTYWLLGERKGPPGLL
Test: In vitro hNPR2 activity assay (cGMP GloSensor reporter, HEK293)
Format: cell-based
Conditions: for EC50: 0% HSA, HEK293-hNPR2/GloSensor cells; for hNPR2 0% HSA. [EC50% rel CNP]: potency relative to CNP22 (0065)
How it was run: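 Potency is the EC50 from a four-parameter logistic fit, also expressed relative to the in-plate CNP22 control (×100), with at least two replicates. Compounds (ten concentrations, […], HSA-free diluent with 1% OVA, 0.01% Tween20) were incubated 30 min at 37 °C on HEK293 cells co-expressing hNPR2 and a GloSensor cGMP luciferase. Luminescence detected with Bright-Glo.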

SMILES | EC50 [nM] | hNPR2 0% HSA. [EC50% rel CNP] [%]
CC[C@H](C)[C@@H]1NC(=O)[C@H](CCCNC(=N)N)NC(=O)[C@H](CC(=O)O)NC(=O)[C@H](CC(C)C)NC(=O)[C@H](CCCCN)NC(=O)[C@H](CC(C)C)NC(=O)CNC(=O)[C@H](Cc2ccccc2)NC(=O)[C@@H](NC(=O)CNC(=O)[C@H](CO)NC(=O)[C@H](CO)NC(=O)[C@H](CC(C)C)NC(=O)CNC(=O)[C@H](CCCCN)NC(=O)[C@H](CCCCN)NC(=O)[C@H](CCC(N)=O)NC(=O)[C@H](C)NC(=O)CNC(=O)[C@H](CCC(=O)O)NC(=O)[C@H](Cc2ccc(O)cc2)NC(=O)COCCOCCNC(=O)COCCOCCNC(=O)CC[C@H](NC(=O)CCCCCCCCCCCCCCCCC(=O)O)C(=O)O)CSSC[C@@H](C(=O)O)NC(=O)CNC(=O)[C@H](CC(C)C)NC(=O)CNC(=O)[C@H](CO)NC(=O)[C@H](CC(C)C)NC(=O)[C@H](CO)NC(=O)CNC1=O [compound 1224] ({C18 diacid-γGlu-AEEA-AEEA}-YEGAQKKGLSSGCFGLKLDRIGSLSGLGC-OH; disulfide 13-29) | 0.86 | 16.9
CC[C@H](C)[C@@H]1NC(=O)[C@H](CCCNC(=N)N)NC(=O)[C@H](CC(=O)O)NC(=O)[C@H](CC(C)C)NC(=O)[C@@H]2CCCN2C(=O)[C@H](CC(C)C)NC(=O)CNC(=O)[C@H](Cc2ccccc2)NC(=O)[C@@H](NC(=O)CNC(=O)[C@H](CO)NC(=O)[C@H](Cc2c[nH]cn2)NC(=O)[C@H](CC(C)C)NC(=O)CNC(=O)[C@H](CCCCN)NC(=O)[C@H](CCCCN)NC(=O)[C@H](CCC(N)=O)NC(=O)[C@H](C)NC(=O)CNC(=O)COCCOCCNC(=O)COCCOCCNC(=O)CC[C@H](NC(=O)CCCCCCCCCCCCCCCCC(=O)O)C(=O)O)CSSC[C@@H](C(=O)O)NC(=O)CNC(=O)[C@H](CC(C)C)NC(=O)CNC(=O)[C@H](CO)NC(=O)[C@H](CC(C)C)NC(=O)[C@H](CO)NC(=O)CNC1=O [compound 1348] ({C18 diacid-γGlu-AEEA-AEEA}-GAQKKGLHSGCFGLPLDRIGSLSGLGC-OH; disulfide 11-27) |  | 31.4
CC[C@H](C)[C@@H]1NC(=O)[C@H](CCCNC(=N)N)NC(=O)[C@H](CC(=O)O)NC(=O)[C@H](CC(C)C)NC(=O)[C@H](CCCCN)NC(=O)[C@H](CC(C)C)NC(=O)CNC(=O)[C@H](Cc2ccccc2)NC(=O)[C@@H](NC(=O)CNC(=O)[C@H](CCCCN)NC(=O)[C@H](CO)NC(=O)[C@H](CC(C)C)NC(=O)CNC(=O)[C@H](CCCCN)NC(=O)[C@H](CCC(=O)O)NC(=O)[C@H](CCC(N)=O)NC(=O)[C@H](C)NC(=O)CNC(=O)[C@H](CCC(N)=O)NC(=O)[C@H](CCC(=O)O)NC(=O)COCCOCCNC(=O)COCCOCCNC(=O)CC[C@H](NC(=O)CCCCCCCCCCCCCCCCC(=O)O)C(=O)O)CSSC[C@@H](C(=O)O)NC(=O)CNC(=O)[C@H](CC(C)C)NC(=O)CNC(=O)[C@H](CO)NC(=O)[C@H](CC(C)C)NC(=O)[C@H](CO)NC(=O)CNC1=O [compound 1231] ({C18 diacid-γGlu-AEEA-AEEA}-EQGAQEKGLSKGCFGLKLDRIGSLSGLGC-OH; disulfide 13-29) | 5.62 | 4.1
CC[C@H](C)[C@@H]1NC(=O)[C@H](CCCNC(=N)N)NC(=O)[C@H](CC(=O)O)NC(=O)[C@H](CC(C)C)NC(=O)[C@@H]2CCCN2C(=O)[C@H](CC(C)C)NC(=O)CNC(=O)[C@H](Cc2ccccc2)NC(=O)[C@@H](NC(=O)CNC(=O)[C@H](CCC(N)=O)NC(=O)[C@H](CO)NC(=O)[C@H](CO)NC(=O)CNC(=O)[C@H](CCCCN)NC(=O)[C@H](CCCCN)NC(=O)[C@H](CCC(N)=O)NC(=O)[C@H](C)NC(=O)CNC(=O)[C@@H]2CCCN2C(=O)[C@H](C)NC(=O)[C@H](CCC(N)=O)NC(=O)CNC(=O)[C@@H]2CCCN2C(=O)[C@H](C)NC(=O)[C@H](CCC(N)=O)NC(=O)CNC(=O)COCCOCCNC(=O)COCCOCCNC(=O)CC[C@H](NC(=O)CCCCCCCCCCCCCCCCC(=O)O)C(=O)O)CSSC[C@@H](C(=O)O)NC(=O)CNC(=O)[C@H](CC(C)C)NC(=O)CNC(=O)[C@H](CO)NC(=O)[C@H](CC(C)C)NC(=O)[C@H](CO)NC(=O)CNC1=O [compound 1458] ({C18 diacid-γGlu-AEEA-AEEA}-GQAPGQAPGAQKKGSSQGCFGLPLDRIGSLSGLGC-OH; disulfide 19-35) |  | 93.6
